Read-outs that look alike come from different tables or passages of the source.
Assays:
[1] = tested on: choline acetyl transferase; test: brain ChAT (choline acetyl transferase) activity in ApoE-deficient mice; type: in vivo; conditions: daily subcutaneous injections from birth to 14 days, measured at 21 days
Procedure: The graph depicts incorporation of radio-labeled choline into acetylcholine. Experiments were conducted as described. Apo-E deficient mice are designated: ApoE; 100% activity in the control (C57B6) mice indicated 669758.4 pmole/mg protein/min. As the experiments were repeated 3-5 times the results were standardized against the control calibrated at 100% per each experiment. ApoE-deficient mice daily injected with peptides are designated ADNF-14, ADNF-9, and NAP, respectively.
ChAT activity was measured according to published procedures (Formum et al., Neurochem. 24:407-409 (1975)). Brains were homogenized with 10 volumes of 50 mM phosphate buffer containing 300 mM NaCl, 20 mM EDTA, and 0.5% triton. The homogenates were centrifuged at 12,000×g for 15 min., and […] of supernatant was mixed with […] of a solution of […] ^14C-acetyl CoA ([…] NEN), 20 mM acetylcholine, 1.6 mM choline chloride, 0.25 mM eserine, and phosphate buffer. Incubation was 15 min. at 37° C. The reaction was terminated and radioactivity was measured in a beta-counter. • 21. Apolipoprotein E (ApoE) Deficient Mouse Model
(§1) ApoE knockout mice and normal controls were a gift from the late Prof. Shlomo Eisenberg of Tel Aviv University, originally provided by Dr. J. L. Breslow (Plump et al., Cell 71:343-353 (1992)). The ApoE knockout mice were obtained from embryonic stem cells OLA 129 in C57B6×FVB mice (as described). Age-matched controls were inbred C57B6 mice. Groups of mouse pups were treated from birth until the age of 14 days. Daily subcutaneous injections included: […] saline (days 1 through 4), […] saline (days 5 through 10) and […] saline (days 11-14).
ChAT activity was measured according to published procedures (Formum et al., Neurochem. 24:407-409 (1975)).

ApoE-deficient mice = test: developmental milestones (placing response, cliff avoidance) in ApoE-deficient mice; type: in vivo; conditions: for acquisition of the placing response and the cliff avoidance response: daily injection; for marked improvement of placing response at the first day of treatment: tested 60 min. after injection
Description: Animals (15-37 per experimental group, 5-8 per litter) were submitted to placing response assays daily following injection of: 1. saline (open circles, C57B6 mice=control, n=37, closed circles, ApoE deficient=ApoE, n=22). Experiments were repeated three times. Score indicates: 0=no reaction, 1=time to acquire a response shorter than 15 seconds; 2=time to acquire a response shorter than 10 seconds; 3=time to acquire a response shorter than 5 seconds. Age (days) indicate: the age of the tested animals in days. Results are mean±SEM.
as §1
Developmental milestones were measured using at least three dams with […] each for every experimental point. All observations were made between 12 noon and 4 pm. From day one through day six, mice were weighed and tested 60 min. after the daily injection. Placing is a behavioral parameter that is measured as the time elapsing between contact of the foot against the edge of an object and its placing on the top of the same object.
Further measurements in the Apo-E-deficient mouse included assessments of the time of onset of developmental milestones of behavior. […] A significant difference was observed among the treatment groups on the first day of testing (P<0.0001), with inbred C57B6 mice developing faster than the ApoE-deficient animals. […] NAP-treated animals were the fastest.

[2] = tested on: cerebral cortical cultures; type: cell-based, newborn rats; conditions: for dilutions giving significant neuroprotection against tetrodotoxin: dilutions of a 1 mg/ml protein solution (E. coli extract) in PBS, 1 μM tetrodotoxin, five days
astrocytes = test: western blot of secreted ADNF-like immunoreactivity in astrocyte conditioned medium; type: cell-based, rat
Description: FIGS. 4A-B. FIG. 4A illustrates the western blot hybridization for immunological detection of the cloned ADNF III protein from bacterial extracts. Bacterial extracts expressing clone p25 were subjected to 10% SDS-polyacrylamide gel electrophoresis followed by western blot analysis with the antibodies used for cloning. […] CBB=Coomassie Brilliant Blue (protein) staining of the same lanes that were subjected western blot analysis. […] FIG. 4B illustrates immunological identification of a secreted ADNF III protein in astrocyte conditioned medium. Astrocyte-conditioned medium was prepared as described supra (see Brenneman & Gozes, J. Clin. Invest. 97:[…] (1996)), with a protein of a high molecular weight identified as the ADNF III molecule by western blot hybridization. SDS-polyacrylamide gel electrophoresis was performed as indicated in the above cited paper. Astroglial cultures obtained from newborn rat cerebral cortex were utilized. Cell extracts and conditioned medium from astrocytes that were treated or untreated with VIP (+, −) were subjected to electrophoresis through 10% polyacrylamide slab gel containing 0.1% SDS. Western blot analysis was performed with antibodies utilized for the cloning (anti-SALLRSIPA=α1).
a. Astrocytes: Astrocytes were prepared from 1-day-old (Sprague-Dawley) rats. […]

ADNF III mRNA = test: mimic polymerase chain reaction of ADNF III mRNA in mouse embryos incubated in vitro; type: cell-based; conditions: 9.5-day-old mouse embryos incubated in vitro for four hours, ratio with cyclophilin mRNA
neuronal cell death = test: neuroprotective effects of ADNF III (summary statement); type: cell-based
Description: The present invention relates to the discovery of a nucleic acid encoding a novel neuroprotective polypeptide, i.e., Activity Dependent Neurotrophic Factor III (ADNF III), also called Activity Dependent Neuroprotective Protein (ADNP). […] Based on the recognized homology between ADNF I and hsp60, a heat shock protein, and PIF1, a DNA repair protein, these two epitopes were utilized to prepare antibodies which, in turn, were used to screen a mouse cDNA-expression library to identify the new neuroprotective polypeptide ADNF III. One mouse ADNF III cDNA clone consists of about 2418 base pairs of an open reading frame, which encodes an ADNF III polypeptide of about 806 amino acids, pI 5.85 (nucleotide sequence, SEQ ID NO:4; amino acid sequence, SEQ ID NO:3, see FIG. 1). An additional mouse cDNA has been cloned, encoding an ADNF III polypeptide of about 828 amino acids, pI 5.99 (nucleotide sequence, SEQ ID NO:54; amino acid sequence, SEQ ID NO:55; see FIG. 11). Human cDNAs encoding ADNF III have also been cloned (“H3” nucleotide sequence, SEQ ID NO:2; “H3” amino acid sequence, SEQ ID NO:1; “H3” nucleotide sequence, SEQ ID NO:56 and FIG. 12; “H3” amino acid sequence, SEQ ID NO:57 and FIG. 12; “H7” nucleotide sequence, SEQ ID NO:58 and FIG. 13; and “H7” amino acid sequence, SEQ ID NO:59 and FIG. 13). […] The promoter sequence for ADNF III has also been cloned (SEQ ID NO:60 and FIG. 14).

[3] = tested on: cerebral cortical cultures; test: neuroprotection against β-amyloid peptide (25-35) neurotoxicity in cerebral cortical cultures; type: cell-based, newborn rats; conditions: dilutions of a 1 mg/ml protein solution (E. coli extract) in PBS, 25 μM β-amyloid fragment 25-35, five days

SALLRSIPA [ADNF-9]
brain ChAT activity compared with vehicle-treated or untreated ApoE-deficient mice [1]: did not significantly improve | placing response from the second postnatal day onwards (ApoE-deficient mice; P<0.0001): best performers | acquisition of the placing response and the cliff avoidance response (ApoE-deficient mice): showed acceleration | marked improvement of placing response at the first day of treatment (ApoE-deficient mice): marked improvement

SVRLGLGGNAPVSIPQQS [reference compound]
neuroprotection (in words) ([2]; FIG. 6A/6B, toxin for the control curves not stated): inactive

VIP: 28-amino acid peptide, secretagogue for ADNF
increase in the secreted 60 KD ADNF-like immunoreactivity (astrocytes): up to 2 fold | increase in ADNF III mRNA (ADNF III mRNA): two-fold

VLGGGSALLRSIPA [ADNF-14]
brain ChAT activity compared with vehicle-treated or untreated ApoE-deficient mice [1]: did not significantly improve | level of performance reached in placing response (ApoE-deficient mice): never reached the level of performance of the NAP or ADNF-9 animals | day on which a significant difference between treated and untreated animals began to appear (placing response) (ApoE-deficient mice; P<0.05): third postnatal day | acquisition of the placing response and the cliff avoidance response (ApoE-deficient mice): showed acceleration | marked improvement of placing response at the first day of treatment (ApoE-deficient mice): not

B1: clone 25: full length ADNF III expressed from clone 25, tested as E. coli protein extract (protein)
chain: MVNRLSIPKPNLNSTGVNMMSNVHLQQNNYGVKSVGQSYGVGQSVRLGLGGNAPVSIPQQSQSVKQLLPSGNGRSFGLGAEQRPPAAARYSLQTANTSLPPGQVKSPSVSQSQASRVLGQSSSKPPPAATGPPPSNHCATQKWKICTICNELFPENVYSVHFEKEHKAEKVPAVANYIMKIHNFTSKCLYCNRYLPTDTLLNHMLIHGLSCPYCRSTFNDVEKMAAHMRMVHIDEEMGPKTDSTLSFDLTLQQGSHTNIHLLVTTYNLRDAPAESVAYHAQNNAPVPPKPQPKVQEKADVPVKSSPQAAVPYKKDVGKTLCPLCFSILKGPISDALAHHLRERHQVIQTVHPVEKKLTYKCIHCLGVYTSNMTASTITLHLVHCRGVGKTQNGQDKTNAPSRLNQSPGLAPVKRTYEQMEFPLLKKRKLEEDADSPSCFEEKPEEPVVLALDPKGHEDDSYEARKSFLTKYFNKQPYPTRREIEKLAASLWLWKSDIASHFSNKRKKCVRDCEKYKPGVLLGFNMKELNKVKHEMDFDAEWLFENHDEKDSRVNASKTVDKKHNLGKEDDSFSDSFEHLEEESNGSGSPFDPVFEVEPKIPSDNLEEPVPKVIPEGALESEKLDQKEEEEEEEEEDGSKYETIHLTEEPAKLMHDASDSEVDQDDVVEWKDGASPSESGPGSQQISDFEDNTCEMKPGTWSDESSQSEDARSSKPAAKKKATVQDDTEQLKWKNSSYGKVEGFWSKDQSQWENASENAERLPNPQIEWQNSTIDSEDGEQFDSMTDGVADPMHGSLTGVKLSSQQA
modifications: left off: large carriers
notes: full length ADNF III expressed from clone 25, tested as E. coli protein extract
EC50 of neuroprotective effects (neuronal cell death): in the femtomolar range | dilutions giving significant neuroprotection against β-amyloid [3]: > 10^−15 | dilutions giving significant neuroprotection against β-amyloid ([3]; listed as clone p25): 10^−14 | dilutions giving significant neuroprotection against tetrodotoxin [2]: 10^−15-10^−13 | dilutions giving significant neuroprotection against tetrodotoxin ([2]; listed as clone p25): 10^−14

Reference: patent US7264947B2, “Activity dependent neurotrophic factor III (ADNF III)” (United States of America, as represented by the Secretary …, priority 1997, dated 2007)
